Laboratory results: patent publication US11952325B1, “5,5′-naphthalene-1,5-diylbis(diazene-2,1-diyl)bis(2-hydroxybenzaldehyde) as an antioxidant compound” (KING FAISAL UNIVERSITY, priority 2023, dated 2024)

Assay: DPPH radical scavenging antioxidant test
Assay type: biochemical
Settings: 517 nm; for Inhibition (radical scavenging inhibition): 0.2 mL DPPH (0.75 mM), compound 3 μM in ethanol, 30 min incubation in the dark
Experimental: The antioxidant activity of 5,5′-naphthalene-1,5-diylbis(diazene-2,1-diyl)bis(2-hydroxybenzaldehyde) was investigated by 2,2-diphenyl-1-picrylhydrazyl (DPPH) in vitro tests that employ vitamin C as the positive control.
The antioxidant properties of the 5,5′-naphthalene-1,5-diylbis(diazene-2,1-diyl)bis(2-hydroxybenzaldehyde) were studied by adding 0.2 mL DPPH (0.75 mM)) to compound 5,5′-naphthalene-1,5-diylbis(diazene-2,1-diyl)bis(2-hydroxybenzaldehyde) (III) (3 μM) in ethanol. After 30 min of incubation in the dark, the absorbance was read against a blank at 517 nm. Ascorbic acid (vitamin C) was used as standard antioxidants (positive control). A blank sample was prepared by 0.2 ml of DPPH in 3 ml ethanol. A negative control sample was run using ethanol instead of the sample. The radical scavenging inhibition was calculated using the following equation: […]
The antioxidant activity for the synthesized compound is listed in Table 1, using Vitamin C as a reference.

| Compound | Inhibition (radical scavenging inhibition) | antioxidant potential compared to vitamin C (vanishing DPPH radical colors) (DPPH in vitro test, vitamin C as positive control) |
| --- | --- | --- |
| O=Cc1cc(/N=N\c2cccc3c(/N=N/c4ccc(O)c(C=O)c4)cccc23)ccc1O [Product III, 5,5′-naphthalene-1,5-diylbis(diazene-2,1-diyl)bis(2-hydroxybenzaldehyde)] | 54% | high potential as an antioxidant |
| O=C1O[C@H]([C@@H](O)CO)C(O)=C1O [vit c, Ascorbic acid, reference compound] | 74% |  |
